From patent US20230330251A1, “METHODS FOR TREATING CANCERS WITH ANTIBODY DRUG CONJUGATES (ADC) THAT BIND TO 191P4D12 PROTEINS” (AGENSYS, INC., priority 2020, published 2023)

Assays:
Format in all cases: in vivo, human
[1] = test system: subjects with previously treated locally advanced or metastatic urothelial cancer; assay: EV-301: progression free survival (PFS1) per RECIST V1.1, investigator assessment
From the text: For each subject, PFS1 is defined as the time from the date of randomization until the date of radiological disease progression (per RECIST V1.1), or until death due to any cause. If a subject has neither progressed nor died, the subject was censored at the date of last radiological assessment. Subjects who receive any further anticancer therapy for the disease before radiological progression were censored at the date of the last radiological assessment before the anticancer therapy started.
The efficacy endpoint of PFS1 was analyzed using the log-rank test stratified by ECOG PS (0 vs 1), regions of the world (Western EU, US or the rest of world) and liver metastasis (yes or no). Randomized treatment and the strata used for randomization was used for the analysis. In addition, stratified Cox proportional hazard model was used to estimate the hazard ratio and the corresponding 95% confidence interval. The median PFS1 was estimated using the Kaplan-Meier method and reported along with the corresponding 95% confidence interval by treatment arm.
The primary analysis was performed using the FAS. Additional sensitivity analyses for PFS1 was also be performed. Details are specified in the SAP.

[2] = test system: patients with previously treated locally advanced or metastatic urothelial carcinoma (la/mUC) with poor prognostic factors; assay: EV-301 subgroup analyses of OS, PFS and ORR incl. hard-to-treat subgroups (age ≥65 years, liver metastasis, primary upper tract disease, CPI nonresponse); settings: for ORR, EV vs SC Absolute Difference / Overall response rate (ORR), % / Overall response rate (ORR), n/N: Response-Evaluable Population
Method: Using FAS, the analysis for OS, PFS1 and ORR were repeated by ECOG PS (0 vs 1), regions of the world, and liver metastasis respectively.
In addition, subgroup analyses were conducted for selected endpoints to determine whether the treatment effect is consistent.
(§1) Subgroup analyses were prespecified for the primary endpoint of OS and secondary endpoints of investigator-assessed progression-free survival (PFS) and overall response rate (ORR) per RECIST v1.1. Kaplan-Meier analyses compared OS and PFS between treatments for selected hard-to-treat subgroups as follows: age ≥65 years, presence of liver metastasis, primary upper tract disease, and checkpoint inhibitor (CPI) nonresponse. ORR and safety were also evaluated within subgroups. The Cox proportional hazards model was used to estimate hazard ratios. The Cochran-Mantel-Haenszel test was used to compare response and disease control rates between groups.

[3] = test system: patients with previously treated locally advanced or metastatic urothelial carcinoma (la/mUC) with poor prognostic factors; assay: EV-301 hard-to-treat subgroups: safety and tolerability
Method: as §1

[4] = Phase 1 study of EV: pharmacokinetics
From the text: Based on pharmacokinetic data from the phase 1 study, the half-life of EV is ˜1-2 days. […] Minimal (<50%) intra-cycle accumulation of MMAE was observed. It is anticipated that the dosing schedule in the study will maintain ADC exposures over each 28-day cycle, contributing to a favorable balance of activity and safety, as observed in the phase 1 trial.

[5] = test system: metastatic urothelial cancer patients; assay: Phase 1 study of EV: clinical activity by dose; settings: 1.25 mg/kg dose vs lower doses
Method: EV will be administered at a dose of 1.25 mg/kg as an intravenous infusion over approximately 30 minutes on Days 1, 8, and 15 of each 28-day cycle. […] A maximum tolerated dose (MTD) was not reached in this study. At the 1 mg/kg dose level, 2 dose- limiting toxicities (DLTs) were observed: Grade 3 proctalgia (later changed to grade 2 by the investigator) thought related to radiation recall and Grade 4 hyperuricemia without clinical sequelae.

[6] = Aged ≥65 Years, N = 190 EV, 188 SC
[7] = Nonresponsive to Prior PD-1/L1 Inhibitor, N = 202 EV, 202 SC
[8] = Presence of Liver Metastasis, N = 90 EV, 92 SC
[9] = Primary Upper Tract Disease, N = 96 EV, 102 SC

In the case of enfortumab vedotin, the “Median PFS” value ([1]; All) is reported as 5.55 mo, the “PFS, EV vs SC HR” value ([1]; All) is reported as 0.615 and the “Progression-free survival (PFS) Events, %” value ([1]; All) is reported as “(66.8) %”. The “Progression-free survival (PFS) Events, n/N” value ([1]; All) was 201/301, the “Median PFS” value ([1]; FAS, investigator assessment) was 5.55 Months and the “PFS Events, %” value ([1]; FAS, investigator assessment) was “(66.8%)”. The “reduction in risk of disease progression or death” value ([1]; PADCEV vs chemotherapy) was 39%, the “Median OS” value ([2]; Age ≥65 yrs) was 14.32 mo and the “Median PFS” value ([2]; Age ≥65 yrs) was 5.65 mo. The “OS, EV vs SC HR” value ([2]; Age ≥65 yrs) was 0.745, the “Overall survival (OS) Events, %” value ([2]; Age ≥65 yrs) was “(44) %” and the “Overall survival (OS) Events, n/N” value ([2]; Age ≥65 yrs) was 85/193. For the same substance, the “PFS, EV vs SC HR” value ([2]; Age ≥65 yrs) was 0.616, the “Progression-free survival (PFS) Events, %” value ([2]; Age ≥65 yrs) was “(65) %” and the “Progression-free survival (PFS) Events, n/N” value ([2]; Age ≥65 yrs) was 126/193. The “ORR, EV vs SC Absolute Difference” value ([2]; Age ≥65 yrs) was 20.9%, the “Overall response rate (ORR), %” value ([2]; Age ≥65 yrs) was 40.8% and the “Overall response rate (ORR), n/N” value ([2]; Age ≥65 yrs) was 75/184. The “Median OS” value ([2]; CPI non-responder) was 11.63 mo, the “Median PFS” value ([2]; CPI non-responder) was 5.42 mo and the “OS, EV vs SC HR” value ([2]; CPI non-responder) was 0.757. For the same substance, the “Overall survival (OS) Events, %” value ([2]; CPI non-responder) was “(48) %”, the “Overall survival (OS) Events, n/N” value ([2]; CPI non-responder) was 100/207 and the “PFS, EV vs SC HR” value ([2]; CPI non-responder) was 0.697. For the same substance, the “Progression-free survival (PFS) Events, %” value ([2]; CPI non-responder) was “(71) %”, the “Progression-free survival (PFS) Events, n/N” value ([2]; CPI non-responder) was 146/207 and the “ORR, EV vs SC Absolute Difference” value ([2]; CPI non-responder) was 22.3%. For the same substance, the “Overall response rate (ORR), %” value ([2]; CPI non-responder) was 39.7%, the “Overall response rate (ORR), n/N” value ([2]; CPI non-responder) was 79/199 and the “Median OS” value ([2]; Presence of Liver metastasis) was 9.63 mo. The “Median PFS” value ([2]; Presence of Liver metastasis) was 4.14 mo, the “OS, EV vs SC HR” value ([2]; Presence of Liver metastasis) was 0.660 and the “Overall survival (OS) Events, %” value ([2]; Presence of Liver metastasis) was “(57) %”. For the same substance, the “Overall survival (OS) Events, n/N” value ([2]; Presence of Liver metastasis) was 53/93, the “PFS, EV vs SC HR” value ([2]; Presence of Liver metastasis) was 0.597 and the “Progression-free survival (PFS) Events, %” value ([2]; Presence of Liver metastasis) was “(76) %”. The “Progression-free survival (PFS) Events, n/N” value ([2]; Presence of Liver metastasis) was 71/93, the “ORR, EV vs SC Absolute Difference” value ([2]; Presence of Liver metastasis) was 24.7% and the “Overall response rate (ORR), %” value ([2]; Presence of Liver metastasis) was 35.5%. For the same substance, the “Overall response rate (ORR), n/N” value ([2]; Presence of Liver metastasis) was 33/93, the “Median OS” value ([2]; Primary upper tract disease) was 12.62 mo and the “Median PFS” value ([2]; Primary upper tract disease) was 5.62 mo. The “OS, EV vs SC HR” value ([2]; Primary upper tract disease) was 0.848, the “Overall survival (OS) Events, %” value ([2]; Primary upper tract disease) was “(45) %” and the “Overall survival (OS) Events, n/N” value ([2]; Primary upper tract disease) was 44/98. The “PFS, EV vs SC HR” value ([2]; Primary upper tract disease) was 0.716, the “Progression-free survival (PFS) Events, %” value ([2]; Primary upper tract disease) was “(64) %” and the “Progression-free survival (PFS) Events, n/N” value ([2]; Primary upper tract disease) was 63/98. The “ORR, EV vs SC Absolute Difference” value ([2]; Primary upper tract disease) was 24.8%, the “Overall response rate (ORR), %” value ([2]; Primary upper tract disease) was 43.9% and the “Overall response rate (ORR), n/N” value ([2]; Primary upper tract disease) was 43/98. The “ORR in hard-to-treat subgroups, EV compared to SC” value ([2]; across all subgroups) was “higher”, the “PFS in hard-to-treat subgroups, EV compared to SC” value ([2]; across all subgroups) was “longer” and the “OS in hard-to-treat subgroups, EV vs SC” value ([2]; liver metastasis, CPI nonresponsive, primary upper tract disease, poor prognostic factors, listed as EV) was “consistently longer”. The “progression-free survival benefit in subgroup analyses” value ([2]; prespecified key subgroups, intention-to-treat population) was “present across multiple subgroups”, the “Grade ≥3 TRAE: Anemia, %” value [3, 6] was 2.6% and the “Grade ≥3 TRAE: Decreased neutrophil count, %” value [3, 6] was 7.4%. For the same substance, the “Grade ≥3 TRAE: Decreased white blood cell count, %” value [3, 6] was 2.1%, the “Grade ≥3 TRAE: Fatigue, %” value [3, 6] was 7.9% and the “Grade ≥3 TRAE: Febrile neutropenia, %” value [3, 6] was 1.1%. The “Grade ≥3 TRAE: Maculopapular rash, %” value [3, 6] was 7.4%, the “Grade ≥3 TRAE: Neutropenia, %” value [3, 6] was 3.7% and the “Grade ≥3 TRAE: Anemia, %” value [3, 7] was 3.0%. For the same substance, the “Grade ≥3 TRAE: Decreased neutrophil count, %” value [3, 7] was 5.0%, the “Grade ≥3 TRAE: Decreased white blood cell count, %” value [3, 7] was 1.0% and the “Grade ≥3 TRAE: Fatigue, %” value [3, 7] was 5.0%. The “Grade ≥3 TRAE: Febrile neutropenia, %” value [3, 7] was 1.0%, the “Grade ≥3 TRAE: Maculopapular rash, %” value [3, 7] was 9.4% and the “Grade ≥3 TRAE: Neutropenia, %” value [3, 7] was 4.5%. The “Grade ≥3 TRAE: Anemia, %” value [3, 8] was 3.3%, the “Grade ≥3 TRAE: Decreased neutrophil count, %” value [3, 8] was 5.6% and the “Grade ≥3 TRAE: Fatigue, %” value [3, 8] was 5.6%. The “Grade ≥3 TRAE: Febrile neutropenia, %” value [3, 8] was 2.2%, the “Grade ≥3 TRAE: Maculopapular rash, %” value [3, 8] was 8.9% and the “Grade ≥3 TRAE: Neutropenia, %” value [3, 8] was 5.6%. For the same substance, the “Grade ≥3 TRAE: Anemia, %” value [3, 9] was 6.3%, the “Grade ≥3 TRAE: Decreased neutrophil count, %” value [3, 9] was 9.4% and the “Grade ≥3 TRAE: Decreased white blood cell count, %” value [3, 9] was 1.0%. For the same substance, the “Grade ≥3 TRAE: Fatigue, %” value [3, 9] was 9.4%, the “Grade ≥3 TRAE: Febrile neutropenia, %” value [3, 9] was 2.1% and the “Grade ≥3 TRAE: Maculopapular rash, %” value [3, 9] was 10.4%. The “Grade ≥3 TRAE: Neutropenia, %” value [3, 9] was 6.3%, the “grade ≥3 treatment-related AEs adjusted for treatment exposure, EV versus SC” value ([3]; across all four hard-to-treat subgroups) was “less frequently” and the “overall rate of AE's” value ([3]; patients non-responsive to prior treatment with PD-1/L1 inhibitors) was 97.5%. For the same substance, the “overall rate of AE's” value ([3]; patients with liver metastasis) was 97.8%, the “overall rate of AE's” value ([3]; patients with primary upper tract disease) was 99.0% and the “overall rate of AE's” value ([3]; patients ≥65 years of age) was 97.4%. The “intra-cycle accumulation of ADC” value ([4]; dosing on Days 1, 8 and 15 of every 28-day cycle, any dose level) was less than 30%, the half-life ([4]; phase 1 study) was 24 to 48 h and the “clinical activity by dose” value [5] was “highest activity”.
